From article PMC12196347, “Evaluating Triazole-Substituted Pyrrolopyrimidines as CSF1R Inhibitors” (Molecules, 2025)
Read-outs that look alike come from different tables or passages of the source.

Assays:
[1] = test system: IL-3 dependent Ba/F3 cell line (CSF1R independent); assay: Control assay for cellular toxicity, Ba/F3 cells dependent on IL-3; format: cell-based; settings: Mus musculus, BaF3; Ba/F3 cells dependent on IL-3, control for cellular toxicity
CHEK1 (CHK1) = target: T1, CHEK1 (CHK1) (Homo sapiens, UniProt O14757); assay: Kinase panel profiling: CHEK1; format: biochemical; settings: ATP equal to KM
T1 construct: purchased Thermo Fisher Scientific (Invitrogen) SelectScreen (Z'-LYTE)
T1 sequence (O14757 1-476): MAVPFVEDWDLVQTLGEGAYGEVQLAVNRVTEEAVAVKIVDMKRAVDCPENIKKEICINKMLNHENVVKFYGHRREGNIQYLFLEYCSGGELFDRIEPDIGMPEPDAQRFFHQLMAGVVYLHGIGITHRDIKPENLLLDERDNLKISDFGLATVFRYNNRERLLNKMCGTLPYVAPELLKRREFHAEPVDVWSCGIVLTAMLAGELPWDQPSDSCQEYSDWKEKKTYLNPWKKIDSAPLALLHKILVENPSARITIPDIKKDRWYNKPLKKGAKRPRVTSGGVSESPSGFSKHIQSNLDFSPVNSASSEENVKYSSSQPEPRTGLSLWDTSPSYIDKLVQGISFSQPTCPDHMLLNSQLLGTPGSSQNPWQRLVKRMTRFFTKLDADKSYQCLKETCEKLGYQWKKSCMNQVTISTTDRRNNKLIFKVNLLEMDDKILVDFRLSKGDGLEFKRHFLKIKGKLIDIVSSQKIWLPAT

CLK1 = target: T2, CLK1 (Homo sapiens, UniProt P49759); assay: Kinase panel profiling: CLK1; format: biochemical; settings: ATP equal to KM
T2 construct: purchased Thermo Fisher Scientific (Invitrogen) SelectScreen (Z'-LYTE)
T2 sequence (P49759 whole entry): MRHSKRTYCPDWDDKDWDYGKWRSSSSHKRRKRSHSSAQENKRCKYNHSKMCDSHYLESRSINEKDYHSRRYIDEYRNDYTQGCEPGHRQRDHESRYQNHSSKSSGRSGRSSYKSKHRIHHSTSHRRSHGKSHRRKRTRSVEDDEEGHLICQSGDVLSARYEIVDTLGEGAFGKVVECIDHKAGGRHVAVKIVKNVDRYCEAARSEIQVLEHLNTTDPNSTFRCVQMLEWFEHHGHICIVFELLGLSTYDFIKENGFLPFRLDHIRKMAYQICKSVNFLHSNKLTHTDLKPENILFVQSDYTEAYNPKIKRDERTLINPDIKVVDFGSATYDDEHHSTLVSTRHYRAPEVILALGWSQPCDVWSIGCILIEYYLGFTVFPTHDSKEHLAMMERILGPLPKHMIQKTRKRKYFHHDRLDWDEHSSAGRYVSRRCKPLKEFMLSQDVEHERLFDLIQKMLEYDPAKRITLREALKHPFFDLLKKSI

FLT3 = target: T3, FLT3 (Homo sapiens, UniProt P36888); assay: Kinase panel profiling: FLT3; format: biochemical; settings: ATP equal to KM
T3 construct: purchased Thermo Fisher Scientific (Invitrogen) SelectScreen (Z'-LYTE)
T3 sequence (P36888 27-993): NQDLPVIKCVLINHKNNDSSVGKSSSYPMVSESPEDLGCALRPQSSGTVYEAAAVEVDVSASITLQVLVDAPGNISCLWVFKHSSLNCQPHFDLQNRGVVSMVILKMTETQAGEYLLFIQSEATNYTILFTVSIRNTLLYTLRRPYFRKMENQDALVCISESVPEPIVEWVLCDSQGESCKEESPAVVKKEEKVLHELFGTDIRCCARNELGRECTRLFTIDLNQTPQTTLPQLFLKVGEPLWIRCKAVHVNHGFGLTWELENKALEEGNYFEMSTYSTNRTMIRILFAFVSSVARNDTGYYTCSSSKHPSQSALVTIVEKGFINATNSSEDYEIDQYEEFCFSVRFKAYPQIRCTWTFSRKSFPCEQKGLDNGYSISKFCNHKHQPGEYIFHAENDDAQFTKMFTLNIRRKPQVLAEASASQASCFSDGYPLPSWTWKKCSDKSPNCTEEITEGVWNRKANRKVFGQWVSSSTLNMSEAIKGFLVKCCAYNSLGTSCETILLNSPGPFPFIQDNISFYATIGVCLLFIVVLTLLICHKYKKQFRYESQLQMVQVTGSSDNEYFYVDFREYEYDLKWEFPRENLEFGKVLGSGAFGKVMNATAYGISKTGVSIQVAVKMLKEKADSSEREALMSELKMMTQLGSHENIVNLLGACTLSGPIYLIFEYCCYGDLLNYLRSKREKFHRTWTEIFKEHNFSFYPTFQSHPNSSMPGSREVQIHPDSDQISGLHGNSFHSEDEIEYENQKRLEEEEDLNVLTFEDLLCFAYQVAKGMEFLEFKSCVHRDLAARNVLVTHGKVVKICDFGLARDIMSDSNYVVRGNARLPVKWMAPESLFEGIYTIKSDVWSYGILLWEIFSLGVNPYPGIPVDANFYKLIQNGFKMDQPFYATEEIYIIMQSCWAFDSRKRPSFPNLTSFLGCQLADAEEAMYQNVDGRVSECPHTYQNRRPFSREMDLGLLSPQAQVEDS

HCK = target: T4, HCK (Homo sapiens, UniProt P08631); assay: Kinase panel profiling: HCK; format: biochemical; settings: ATP equal to KM
T4 construct: purchased Thermo Fisher Scientific (Invitrogen) SelectScreen (Z'-LYTE)
T4 sequence (P08631 whole entry): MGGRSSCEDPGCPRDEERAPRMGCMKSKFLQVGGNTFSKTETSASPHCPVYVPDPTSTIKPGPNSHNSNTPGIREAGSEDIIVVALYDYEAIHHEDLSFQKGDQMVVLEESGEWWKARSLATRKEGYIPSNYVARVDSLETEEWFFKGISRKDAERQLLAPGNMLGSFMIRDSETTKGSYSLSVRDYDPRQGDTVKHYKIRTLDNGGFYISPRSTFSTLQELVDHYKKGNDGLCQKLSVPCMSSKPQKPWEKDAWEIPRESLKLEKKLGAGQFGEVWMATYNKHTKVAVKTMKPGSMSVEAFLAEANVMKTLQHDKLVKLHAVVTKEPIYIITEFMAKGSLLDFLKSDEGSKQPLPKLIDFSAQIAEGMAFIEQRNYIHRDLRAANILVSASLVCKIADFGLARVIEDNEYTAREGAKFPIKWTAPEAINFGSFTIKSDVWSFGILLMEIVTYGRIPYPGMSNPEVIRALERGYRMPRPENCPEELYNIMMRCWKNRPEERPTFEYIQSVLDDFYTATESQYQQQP

MUSK = target: T5, MUSK (Homo sapiens, UniProt O15146); assay: Kinase panel profiling: MUSK; format: biochemical; settings: ATP equal to KM
T5 construct: purchased Thermo Fisher Scientific (Invitrogen) SelectScreen (Z'-LYTE)
T5 sequence (O15146 24-869): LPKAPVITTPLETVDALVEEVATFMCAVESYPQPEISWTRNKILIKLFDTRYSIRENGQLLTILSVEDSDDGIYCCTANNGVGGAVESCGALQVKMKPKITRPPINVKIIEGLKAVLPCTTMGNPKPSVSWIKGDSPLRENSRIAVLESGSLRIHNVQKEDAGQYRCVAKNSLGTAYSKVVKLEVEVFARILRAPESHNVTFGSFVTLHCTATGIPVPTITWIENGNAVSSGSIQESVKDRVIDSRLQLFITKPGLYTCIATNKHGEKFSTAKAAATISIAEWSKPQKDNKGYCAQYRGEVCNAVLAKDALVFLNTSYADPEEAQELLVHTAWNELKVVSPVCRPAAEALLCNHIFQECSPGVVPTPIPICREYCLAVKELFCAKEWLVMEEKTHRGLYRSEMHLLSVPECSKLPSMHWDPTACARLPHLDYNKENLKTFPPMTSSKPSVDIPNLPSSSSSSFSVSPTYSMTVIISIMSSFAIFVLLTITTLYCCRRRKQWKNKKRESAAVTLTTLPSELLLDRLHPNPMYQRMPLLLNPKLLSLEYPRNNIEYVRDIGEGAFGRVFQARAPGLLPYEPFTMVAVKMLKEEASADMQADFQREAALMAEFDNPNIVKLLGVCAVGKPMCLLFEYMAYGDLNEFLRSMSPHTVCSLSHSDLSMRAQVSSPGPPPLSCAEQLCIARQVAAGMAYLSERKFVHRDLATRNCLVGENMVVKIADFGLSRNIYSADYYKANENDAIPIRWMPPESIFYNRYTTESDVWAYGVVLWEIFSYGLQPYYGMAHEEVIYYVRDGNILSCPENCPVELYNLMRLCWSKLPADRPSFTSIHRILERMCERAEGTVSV

[2] = 1000 nM test concentration, read-out: Average inhibition (%)
[3] = 1000 nM, first data point, read-out: Inhibition (%)
[4] = 1000 nM, second data point, read-out: Inhibition (%)

inhibition at 1 µM (CHEK1 (CHK1); [2]): 5%
inhibition at 1 µM (CHEK1 (CHK1); [3]): 0%
inhibition at 1 µM (CHEK1 (CHK1); [4]): 9%
inhibition at 1 µM (CLK1; [2]): 8%
inhibition at 1 µM (CLK1; [3]): 8%
inhibition at 1 µM (FLT3; [2]): 44%
inhibition at 1 µM (FLT3; [3]): 42%
inhibition at 1 µM (FLT3; [4]): 45%
inhibition at 1 µM (HCK; [2]): 77%
inhibition at 1 µM (HCK; [3]): 77%
inhibition at 1 µM (HCK; [4]): 76%
inhibition at 1 µM (MUSK; [2]): 72%
inhibition at 1 µM (MUSK; [3]): 73%
inhibition at 1 µM (MUSK; [4]): 72%
SMILES: Cc1cccc(CN(C)c2ncnc3[nH]c(-c4cn(Cc5cccnc5)nn4)cc23)c1 [Compound 27a, N-Methyl-N-(3-methylbenzyl)-6-(1-(pyridin-3-ylmethyl)-1H-1,2,3-triazol-4-yl)-7H-pyrrolo[2,3-d]pyrimidin-4-amine]
IC50 [1]: > 10 µM
